Experimental data taken from US20260042731A1, “(2,4-DICHLOROPHENOXY)ACETIC ACID ANALOGS” (CORTEVA AGRISCIENCE LLC, priority 2022, published 2026).
Where two headings read alike, the source gives them in different places.

Tests used:
[1] = system: Chenopodium album (CHEAL), common lambsquarters; experiment: Postemergence herbicide evaluation, growth of Chenopodium album (CHEAL); format: in vivo; details: Chenopodium album, post-emergence, percent reduction in plant size vs untreated control, read-out: Ave. CHEAL; for pest or weed control at 280 g/ha: 280 g ae/ha; for pest or weed control at 560 g/ha: 560 g ae/ha
[2] = system: weeds ABUTH, AMATA, AMBEL, CHEAL, ERICA; experiment: Postemergence herbicide evaluation, overall average % weed control across ABUTH, AMATA, AMBEL, CHEAL and ERICA; format: in vivo; details: post-emergence, average over five weeds, read-out: Overall Ave % Weed Control; for pest or weed control at 280 g/ha: 280 g ae/ha; for pest or weed control at 560 g/ha: 560 g ae/ha
[3] = system: Ambrosia artemisiifolia (AMBEL), common ragweed; experiment: Postemergence herbicide evaluation, growth of Ambrosia artemisiifolia (AMBEL); format: in vivo; details: Ambrosia artemisiifolia, post-emergence, percent reduction in plant size vs untreated control, read-out: AVE. AMBEL; for pest or weed control at 280 g/ha: 280 g ae/ha; for pest or weed control at 560 g/ha: 560 g ae/ha
[4] = Volatility of compounds measured by thermogravimetric analysis (TGA); format: physicochemical
[5] = system: Abutilon theophrasti (ABUTH), velvetleaf; experiment: Postemergence herbicide evaluation, growth of Abutilon theophrasti (ABUTH); format: in vivo; details: Abutilon theophrasti, post-emergence, percent reduction in plant size vs untreated control, read-out: AVE. ABUTH; for pest or weed control at 280 g/ha: 280 g ae/ha; for pest or weed control at 560 g/ha: 560 g ae/ha
[6] = system: Amaranthus rudis (AMATA), tall water hemp; experiment: Postemergence herbicide evaluation, growth of Amaranthus rudis (AMATA); format: in vivo; details: Amaranthus tuberculatus, post-emergence, percent reduction in plant size vs untreated control, read-out: Ave. AMATA; for pest or weed control at 280 g/ha: 280 g ae/ha; for pest or weed control at 560 g/ha: 560 g ae/ha
[7] = system: glyphosate resistant Conyza canadensis (L.) (ERICA), horseweed; experiment: Postemergence herbicide evaluation, growth of Conyza canadensis (ERICA); format: in vivo; details: Erigeron canadensis, post-emergence, percent reduction in plant size vs untreated control, read-out: Ave. ERICA; for pest or weed control at 280 g/ha: 280 g ae/ha; for pest or weed control at 560 g/ha: 560 g ae/ha

| Compound | pest or weed control at 280 g/ha ([1]; 168 h, 7 DAA) | pest or weed control at 560 g/ha ([1]; 168 h, 7 DAA) | pest or weed control at 280 g/ha ([1]; 336 h, 14 DAA) | pest or weed control at 560 g/ha ([1]; 336 h, 14 DAA) | pest or weed control at 280 g/ha ([1]; 504 h, 21 DAA) | pest or weed control at 560 g/ha ([1]; 504 h, 21 DAA) | pest or weed control at 280 g/ha ([2]; 168 h, 7 DAA) | pest or weed control at 560 g/ha ([2]; 168 h, 7 DAA) | pest or weed control at 280 g/ha ([2]; 336 h, 14 DAA) | pest or weed control at 560 g/ha ([2]; 336 h, 14 DAA) | pest or weed control at 280 g/ha ([2]; 504 h, 21 DAA) | pest or weed control at 560 g/ha ([2]; 504 h, 21 DAA) | pest or weed control at 280 g/ha ([3]; 168 h, 7 DAA) | pest or weed control at 560 g/ha ([3]; 168 h, 7 DAA) | pest or weed control at 280 g/ha ([3]; 336 h, 14 DAA) | pest or weed control at 560 g/ha ([3]; 336 h, 14 DAA) | pest or weed control at 280 g/ha ([3]; 504 h, 21 DAA) | pest or weed control at 560 g/ha ([3]; 504 h, 21 DAA) | TGA Data (rate of weight loss, volatility) [4] | pest or weed control at 280 g/ha ([5]; 168 h, 7 DAA) | also measured |
| --- | --- | --- | --- | --- | --- | --- | --- | --- | --- | --- | --- | --- | --- | --- | --- | --- | --- | --- | --- | --- | --- |
| O=C(COc1ccc(Cl)cc1Cl)Nc1ccccn1 [Compound D28] | 80% | 77.5% | 97% | 96.5% | 100% | 96.5% | 79% | 83.1% | 95.8% | 95.8% | 96.2% | 99% | 75% | 85% | 90% | 100% | 100% | 100% | 0.06 µg/min | 77.5% | pest or weed control at 560 g/ha ([5]; 168 h, 7 DAA): 72.5%; pest or weed control at 280 g/ha ([5]; 336 h, 14 DAA): 96.5%; pest or weed control at 560 g/ha ([5]; 336 h, 14 DAA): 97.5%; pest or weed control at 280 g/ha ([5]; 504 h, 21 DAA): 100%; pest or weed control at 560 g/ha ([5]; 504 h, 21 DAA): 100%; pest or weed control at 280 g/ha ([6]; 168 h, 7 DAA): 80%; pest or weed control at 560 g/ha ([6]; 168 h, 7 DAA): 98%; pest or weed control at 280 g/ha ([6]; 336 h, 14 DAA): 96%; pest or weed control at 560 g/ha ([6]; 336 h, 14 DAA): 87.5%; pest or weed control at 280 g/ha ([6]; 504 h, 21 DAA): 81.5%; pest or weed control at 560 g/ha ([6]; 504 h, 21 DAA): 100%; pest or weed control at 280 g/ha ([7]; 168 h, 7 DAA): 82.5%; pest or weed control at 560 g/ha ([7]; 168 h, 7 DAA): 82.5%; pest or weed control at 280 g/ha ([7]; 336 h, 14 DAA): 99.5%; pest or weed control at 560 g/ha ([7]; 336 h, 14 DAA): 97.5%; pest or weed control at 280 g/ha ([7]; 504 h, 21 DAA): 99.5%; pest or weed control at 560 g/ha ([7]; 504 h, 21 DAA): 98.5% |
| C=CCONC(=O)COc1ccc(Cl)cc1Cl [Compound D33] | 82.5% | 46.5% | 98% | 92.5% | 96.5% | 99% | 85.7% | 77.7% | 96.9% | 94.9% | 98.2% | 97.8% | 86% | 80% | 96% | 90% | 100% | 100% | 0.34 µg/min | 85% | pest or weed control at 560 g/ha ([5]; 168 h, 7 DAA): 92.5%; pest or weed control at 280 g/ha ([5]; 336 h, 14 DAA): 98.5%; pest or weed control at 560 g/ha ([5]; 336 h, 14 DAA): 99.5%; pest or weed control at 280 g/ha ([5]; 504 h, 21 DAA): 100%; pest or weed control at 560 g/ha ([5]; 504 h, 21 DAA): 100%; pest or weed control at 280 g/ha ([6]; 168 h, 7 DAA): 92.5%; pest or weed control at 560 g/ha ([6]; 168 h, 7 DAA): 92%; pest or weed control at 280 g/ha ([6]; 336 h, 14 DAA): 92.5%; pest or weed control at 560 g/ha ([6]; 336 h, 14 DAA): 92.5%; pest or weed control at 280 g/ha ([6]; 504 h, 21 DAA): 95%; pest or weed control at 560 g/ha ([6]; 504 h, 21 DAA): 92.5%; pest or weed control at 280 g/ha ([7]; 168 h, 7 DAA): 82.5%; pest or weed control at 560 g/ha ([7]; 168 h, 7 DAA): 77.5%; pest or weed control at 280 g/ha ([7]; 336 h, 14 DAA): 99.5%; pest or weed control at 560 g/ha ([7]; 336 h, 14 DAA): 100%; pest or weed control at 280 g/ha ([7]; 504 h, 21 DAA): 99.5%; pest or weed control at 560 g/ha ([7]; 504 h, 21 DAA): 97.5% |
